Some results are limits rather than exact numbers.

In turn, `CCOC(=O)c1cc2cc(OC(F)(F)F)cc(NS(=O)(=O)c3cccs3)c2[nH]1` had a melting point of 192 to 193 °C.

On to `Cc1cc(C)c2c(c1C)OC(C)(CC(=O)O)C2` (stereo not given), for which the melting point lay within 139 to 140 °C.

As to `COc1cc(CCl)nc(N)n1`, the melting point was in the range of 89 to 90 °C.

`CN(C)C1CCc2c(c3ccccc3n2C)C1` (stereo not given) displayed a melting point greater than 300 °C.

`CC(=O)c1cc(CC2CO2)c(OCCCCC#N)cc1O` (stereo not given) displayed a melting point of 86 to 87 °C.

In turn, `Cc1c(C)c2c(c([N+](=O)[O-])c1C)OC(C)(C)C2` came in with a melting point of 100 to 101 °C.

`OC1CCCCC1n1ccnc1` (stereo not given) yielded a melting point of 127 to 131 °C.

For the molecule `Cc1ccc(S(=O)(=O)Cc2c(-c3cc([N+](=O)[O-])cc([N+](=O)[O-])c3)nn(C)c2O)cc1`, the melting point was 192 to 194 °C.

With `CSC1=C(Sc2ccc(C)cc2)CC2C3CCC4=CC(=O)C=CC4(C)C3(F)C(O)CC12C` (stereo not given), the melting point was in the range of 205 to 206 °C.

Molecule `CC(C)(C)C(O)(COC1CCCCO1)Cn1ccnc1` (stereo not given) showed a melting point of 107 °C.

As to `Oc1ccccc1-c1ncc2ncc(Cl)cc2n1`, the melting point lay within 211 to 212 °C.

`Cc1cccc(NC(=O)NCC(=O)N(CC(=O)OC(C)(C)C)c2cccc(Cl)c2Cl)c1` came in with a melting point of 135 °C.

`CCOC(=O)CNc1cc(C(F)(F)F)ccc1C#N` had a melting point of 98 to 101 °C.

In the case of `CCOC(=O)c1nnc2ccc(-c3cccs3)cc2c1O`, the melting point was 258 to 260 °C.

As to `COc1cc(C)c(N)c(C)c1C`, the melting point was in the range of 70 to 72 °C.

On to `COCC#Cc1ncn2c1CN(C)C(=O)c1cc(F)ccc1-2`, for which the melting point lay within 146 to 147 °C.

Molecule `CC1=C(C(=O)Nc2cccc(C(=O)OC(C)C)c2)SCCO1` yielded a melting point of 92 to 94 °C.

In turn, `Nc1noc2cc3c(cc12)C1(CO3)C(=O)N(Cc2ccccn2)c2ccccc21` (stereo not given) displayed a melting point of 190 to 192 °C.

On to `CC(=O)C1=C(O)C(=C(C)Nc2cc(NS(C)(=O)=O)cc(NS(C)(=O)=O)c2)C(=O)OC1=O`, for which the melting point was found to be 260 °C.

On to `C=CCN1CCCCNC1=C[N+](=O)[O-]`, for which the melting point was in the range of 82 to 83 °C.

As for `Cc1ccc(C(CC(=O)O)C(C#N)c2cccnc2)cc1` (stereo not given), the melting point is 185 to 187 °C.

Molecule `CCCC(=O)OCOC(=O)C1=C(C)NC(C)=C(C(=O)OC)C1c1cccc(Cl)c1Cl` (stereo not given) had a melting point of 128 to 129 °C.

For the molecule `C#CC[C@@H](NCCCNC(=O)OCc1ccccc1)c1nc2cc(Cl)ccc2c(=O)n1Nc1ccccc1`, the melting point was 63 to 65 °C.

`C=C1C(=O)OC2OC3(C)CCC4C(C)CCC1C24OO3` (stereo not given) displayed a melting point of 161 to 162 °C.

`CC(C)Oc1ccc(-c2ccc3nc(C(=O)NC(Cc4ccc(OCc5ccccc5)cc4)C(=O)O)cn3c2)cc1` (stereo not given) gave a melting point of 263 °C.

In turn, `O=C1Cc2cc(F)ccc2Oc2ccccc21` returned a melting point of 63 to 64 °C.

For `c1ccc(CNc2nnc(-c3ccc(CN4CCCCCC4)s3)s2)cc1`, the melting point fell in the range of 165 to 166 °C.

Regarding `C=Cc1ccc(CSCCC(=O)O)cc1`, the melting point lay in the range of 77 to 78 °C.

For the molecule `O=c1ccc2cc([C@H](c3cccc(C(F)(F)F)c3)n3cncn3)ccc2[nH]1`, the melting point amounted to 176 °C.

As to `Oc1c(CCl)cc(F)cc1CCl`, the melting point was found to be 70 °C.

The molecule `COC(=O)C(C)(C(=O)OC)C(C[N+](=O)[O-])c1ccccc1` (stereo not given) had a melting point of 130 to 132 °C.

In the case of `Cc1ccccc1-c1c(NC(=O)Nc2c(C)cccc2C(C)C)c(=O)oc2c(F)cc(F)cc12`, the melting point lay within 219 to 220 °C.

`Clc1cnc2c(-c3ccccc3)nc(-c3ccccc3)nc2c1` registered a melting point of 120 to 121 °C.

`c1cc(C2CCC(c3ccc(OCC4CO4)cc3)CC2)ccc1OCC1CO1` (stereo not given) showed a melting point of 154 °C.

On to `CCCc1c(OCc2cccc(COc3ccccc3CCC(=O)O)c2)ccc2c1OCCC2=O`, for which the melting point fell in the range of 132 to 135 °C.

`CN1CCc2ccccc21` showed a melting point of 88 to 90 °C.

In turn, `COC(=O)c1ccc2c(c1)OCC2(C)Cc1ccccc1` (stereo not given) showed a melting point of 52 °C.

`CCCCNC(=O)N1Cc2ccccc2CCC1=O` came in with a melting point of 84.5 to 85 °C.

In the case of `CCc1ccc(OCCCN2CCN(c3ccc(Cl)nn3)CC2)cc1`, the melting point is 123 to 125 °C.

The molecule `CCOP(=O)(CCN1CCC(N(CCN)S(=O)(=O)c2ccc(Nc3nccc(Nc4ccc(F)cc4)n3)cc2)CC1)OCC` displayed a melting point of 90 °C.

Molecule `CSc1cnc(OCCOc2ncnc(NS(=O)(=O)c3ccc(C(C)(C)C)cc3)c2Br)nc1` returned a melting point of 120 to 121 °C.

`CN(C)C(=O)NCC(C)(C)c1ccc2nc(-c3ccncc3)[nH]c2c1` had a melting point of 136 to 138 °C.

As for `CC1(C)CCc2c(N)c(Cl)cc(C(=O)O)c2O1`, the melting point was 165 °C.

Consider `CCC(C(=O)c1ccc(Cl)cc1)n1ncn(-c2ccc(N3CCN(c4cc(C)cc(C)n4)CC3)nc2)c1=O` (stereo not given), for which the melting point stood at 113 °C.

`O=C(OCc1ccccc1)c1ccc(OC(=O)c2ccc(O)c(C34CC5CC(CC(C5)C3)C4)c2)cc1` registered a melting point of 164 to 165 °C.

With `[O-][N+]1=C(c2ccccc2F)c2cc(Cl)ccc2-n2cnc(N3CCCC3)c2C1`, the melting point lay in the range of 190 to 192 °C.

In turn, `Cc1ccc(N2N=C(C(N)=O)NC2c2c(F)cccc2F)cc1COCC(F)(F)C(F)(F)F` (stereo not given) displayed a melting point of 182 to 185 °C.

In turn, `COc1ccc(C(C#N)=NO)cc1` showed a melting point of 141 °C.

`CC(=O)Oc1cc2c(c([N+](=O)[O-])c1OC(C)=O)C(=O)C(C)(C)CC2` returned a melting point of 145 to 147 °C.

The molecule `CCCN(CCC)C1COc2cccc(C(=O)c3ccc(F)cc3)c2C1` (stereo not given) had a melting point of 60 to 62 °C.

In turn, `CN(c1cc(OC(F)(F)F)cc2cc(C3=NCC(CC(=O)O)S3)[nH]c12)S(=O)(=O)c1cccs1` (stereo not given) returned a melting point of 225 to 227 °C.

As for `CNC(=O)C(=O)CCCCCCS(=O)(=O)c1ccc2ccccc2c1`, the melting point is 108 to 109 °C.

Take `CCc1cnc2c(NC(=O)c3c(Cl)cccc3Cl)cccc2c1CCBr`: the melting point is 187 to 188 °C.

`Cc1csc(C(=O)CCc2ccccc2)c1OCCN(C)C` registered a melting point of 106 to 108 °C.

Turning to `CC(C)(C)OC(=O)N1CCn2c(c(C(N)=S)c(Cl)c2-c2cccnc2)C1`, the melting point fell in the range of 220 to 221 °C.

In the case of `O=C(Nc1ccncc1)C1c2ccccc2CCc2ccccc21`, the melting point is 148 to 149 °C.

In the case of `CN1CCN(S(=O)(=O)c2cc(-c3csc(=Nc4ccccc4)n3C)ccc2Cl)CC1`, the melting point is 156 to 158 °C.

`CCCOc1ccc(Br)c2c(=O)c3ccccc3sc12` registered a melting point of 112 to 114 °C.

With `O=C(O)c1ccc(OCCCCCCO)cc1`, the melting point was 132 to 135 °C.

`COC(=O)c1cc2ccc(SCc3ccc(OC)cc3)cc2nc1OC` registered a melting point of 133 to 134 °C.

For `N[C@@H](Cc1cccc(OC(F)(F)C(F)F)c1)[C@H](O)c1ccc(Oc2ccccc2)cc1` (racemic), the melting point was 85 to 86 °C.

In turn, `Cc1ccc(C)n1-c1cc2c(cc1C(F)(F)F)[nH]c(=O)c(=O)n2CCC(=O)NCc1ccccc1` yielded a melting point of 260 to 262 °C.

As for `CCCCC(C)(C)C=CC(OC(C)=O)C1C(C)CC2OC(=O)CC21` (stereo not given), the melting point lay in the range of 83 to 83.5 °C.

For the molecule `OCC1OC(n2cnc3c(NC4CCCC4O)ncnc32)C(O)C1O` (stereo not given), the melting point was 163 to 164 °C.

In turn, `O=C(C[C@@H](CCCC1CCCCC1)c1nc(Cn2cncn2)no1)NO` returned a melting point of 118 to 120 °C.

Take `CCOc1c(C)c(N2CCN(c3ccc(C)cc3)CC2)c(C)c2c1OC(C)C2` (stereo not given): the melting point lay in the range of 96 to 98 °C.

For `Fc1cncc(-n2ccc(Cl)n2)c1`, the melting point is 77 to 82 °C.

Molecule `CC(C)(C)c1ccc(CCOc2ncnc3ncccc23)cc1` came in with a melting point of 77 to 79 °C.

The molecule `CCOC(=O)c1cn(C)c2nc3c(F)c(N4CCNC(c5ccccc5)C4)c(F)cc3cc2c1=O` (racemic) showed a melting point of 216 °C.

For the molecule `CCOC(=O)c1c(Br)nn(C)c1S(N)(=O)=O`, the melting point was 96 to 98 °C.

The molecule `CC(C(N)=O)c1ccc2c(c1)C(=O)Cc1cc([N+](=O)[O-])ccc1S2` (stereo not given) came in with a melting point of 207 to 209 °C.

In the case of `CCC(C)(C)NC(=S)Nc1cc(Cl)cc(Cl)c1`, the melting point was in the range of 134 to 136 °C.

Molecule `CCOC(=O)CON1C(=O)C(=O)N(c2cc(Cl)ccc2C)C1=S` came in with a melting point of 157 to 159 °C.

As to `N#CC(C#N)=C1N(CCCN2CCCCC2)CCN1CCN1CCc2ccccc2C1`, the melting point fell in the range of 101 to 102 °C.

With `COc1cccc2c1C(=O)N1CCC[C@H]1c1c(C(=O)OC(C)(C)C)ncn1-2`, the melting point fell in the range of 200 to 201 °C.

In turn, `CC(=O)OCCn1cc(-c2ccccc2)[nH]c1=O` came in with a melting point of 86 to 88 °C.

Consider `CS(=O)(=O)c1ccc(-c2ccc3cnc(Nc4ccc(C5CCN(CC(N)=O)CC5)cc4)nn23)cc1`, for which the melting point was 310 °C.

In the case of `COC(=O)C(=CNc1ncnc2ccc(NC(=O)CC(C)(C)C)cc12)C(=O)OC`, the melting point is 196 to 198 °C.

Molecule `Oc1ccc2c(c1)CCC(n1cc[nH]c1=S)C2` (stereo not given) showed a melting point of 240 to 241 °C.

With `Cn1nc(-c2c(Cl)cncc2Cl)nc1Cc1ccc(Cl)cc1Cl`, the melting point was in the range of 79 to 81 °C.

As to `COc1nc(C)cnc1NS(=O)(=O)c1cccnc1-c1ccc(CCC(=O)O)cc1`, the melting point lay within 166 to 168 °C.

`CCCOc1ccc(OC)cc1C(N)=O` had a melting point of 83 to 87 °C.

With `COc1cc2c(cc1Nc1ncc(Cl)c(Nc3ccc(N4CCOCC4)cc3)n1)CCN(CC(=O)N(C)C)CC2`, the melting point is 227 to 242 °C.

On to `c1ccc(C(CCN2CC3=C(C2)c2cccc4cccc3c24)(c2ccccc2)c2ccccc2)cc1`, for which the melting point lay in the range of 159 to 168 °C.

`CC(C)(C)OC(=O)NC1(CCOS(C)(=O)=O)CC1` showed a melting point of 88 to 89 °C.

In the case of `CC1=Nc2ccccc2CC(c2cccnc2)N1C` (stereo not given), the melting point lay in the range of 145 to 148 °C.

Molecule `OCCOc1ccc(C2=NCCO2)cc1` gave a melting point of 149 to 150 °C.

`CCOC(OCC)c1c(C#N)cnn1-c1cc(SC)n(C)n1` gave a melting point of 154 to 158 °C.

Consider `CCC(CC)Nc1cc(C)nc(Nc2c(C)cc(C)cc2C)c1N`, for which the melting point was 213 to 216 °C.

As for `Cc1c(C=O)c2cc(F)ccc2n1-c1ccc(OCc2ccccc2)cc1`, the melting point was in the range of 219 to 220 °C.

Usually melting point stands for the temperature of the solid-liquid transition.

These data come from a melting point compilation (Tetko et al.; mined from patent text by program, amines drawn as free bases though some values may be those of a salt).
